According to patent publication US5876981A, “Transglycosylation reactions employing β-galactosidase” (The Scripps Research Institute, priority 1996, dated 1999):

Assays:
Format in all cases: biochemical, Bacillus circulans
[1] = tested on: β-galactosidase; assay: half-life in β-galactosidase-catalyzed hydrolysis (pseudo first order kinetics); conditions: 5 mM compound, enzyme 140 U/mmol, in D2O, NMR integration of released 3 vs remaining 4
Description: (§1) The half-lives of compounds 2 and 4 determined from the pseudo first order kinetics of the β-galactosidase-catalyzed hydrolysis were measured as below. 2: A 0.5-mL solution of potassium phosphate buffer (50 mM, pH 7.0) containing 2 (5 mM) and β-galactosidase (140 unit per 1 mmol of 2) was measured continuously in a plastic cell with a 1 cm light path at 420 nm against a control in the absence of the enzyme. 4: A 5-mM solution of 4 and the enzyme (140 U/mmol) in D2 O was poured into an NMR tube, the ratio between the released 3 and remaining 4 was determined periodically by the integration of 6-H of 4 (3.98 ppm) and 6-H of 3 (3.88 ppm).

[2] = as above; conditions: potassium phosphate buffer with β-galactosidase; 5 mM compound, enzyme 140 unit per mmol, 50 mM potassium phosphate buffer pH 7.0, absorbance at 420 nm; read-out: T1/2 toward the β-galactosidase-catalyzed hydrolysis (converted)
Description: as §1

[3] = tested on: β-galactosidase; assay: initial reaction rate of β-galactosidase-catalyzed reaction (released p-nitrophenol, 420 nm); conditions: 0.05M donor, 0.05M potassium phosphate buffer pH 7.0, room temperature
Description: FIG. 2 illustrates the comparison of β-galactosidase-catalyzed reaction using galactopyranose (GalβOpNP) and galactohexodialdose (6-oxo-GalβOpNP). (a): The reaction mixture containing 0.05M of donor, and various concentrations of N-acetyl-D-glucosamine in 0.05M potassium phosphate buffer (pH 7.0) was gently stirred at room temperature in the presence of the enzyme (140 U/mmol of donor) for 24 hours; (b) The mixture (containing the same components as described in (a)) was incubated with shaking for 5-10 min at room temperature. Absorbance was measured at 420 nm; (C) Methyl-β-N-acetyl-D-lactosamine (5) was obtained by reduction with NaBH4 followed by product isolation.
In order to determine which step is kinetically controlled, the effect of acceptors on initial reaction rate, (V)0, was investigated (FIG. 2). […] Addition of water soluble organic solvent would reduce water activity to some extent, but it often causes substrate and/or product inhibition and makes the enzyme unstable (Kieboom et al., Recl. Trav. Chim. Pays-Bas 1988, 107, 347-348). To shift the reaction toward transglycosylation in water, it is therefore necessary to kinetically control the partitioning step to favor the transglycosylation.

Row | Molecule | T1/2 toward the β-galactosidase-catalyzed hydrolysis [1] [min] | half-life at 5000 µM [2] [min] | substrate quality for β-galactosidase [3]
1 | 6'-oxo-LacNAc [Compound 4] | 1860 | – | –
2 | O=[N+]([O-])c1ccc(O[C@@H]2O[C@H](C(O)O)[C@H](O)[C@H](O)[C@H]2O)cc1 [Compound 2, p-nitrophenyl glycoside of D-galactohexodialdose] | – | 24 | relatively weak substrate
